Data on 24 molecules can be found in patent US20230107642A1 (Erasca, Inc., priority 2020, published 2023).

The structures appear in SMILES notation.

The target in the first assay is T1, K-Ras G12C (Homo sapiens, UniProt P01116, G12C).
T1 construct: This protein contained 188 amino acids in total, including an N-terminal 6-Histidine tag; made in house; host or cells: E. coli BL21
Put plainly: CAF assay (% CAF; method in Example 7, not in this part). Type of assay: binding. To be noted: 10 uM, 1 h; Table 3.
With `C=CC(=O)N1CCN(c2nc(=O)n3c4c(c(-c5ccc(F)c(C(=O)NC)c5)c(Cl)cc24)SCC3)[C@@H](C)C1` [Example 85, (S)-5-(7-(4-acryloyl-2-methylpiperazin-1-yl)-9-chloro-5-oxo-2,3-dihydro-5H-[1,4]thiazino[2,3,4-ij]quinazolin-10-yl)-2-fluoro-N-methylbenzamide], the “% CAF @ 10 uM, 1h” value was determined as 60.3%.
Same read-out and setting: for `C=CC(=O)N1CCN(c2nc(=O)n3c4c(c(-c5cccc6cnccc56)c(Cl)cc24)SCC3)[C@@H](C)C1` [Example 86, 7-((S)-4-acryloyl-2-methylpiperazin-1-yl)-9-chloro-10-(isoquinolin-5-yl)-2,3-dihydro-5H-[1,4]thiazino[2,3,4-ij]quinazolin-5-one] the value was 76.1%.
The same measure, in the same setting: for `C=CC(=O)N1CCN(c2nc(=O)n3c4c(c(-c5ccc(F)cc5F)c(Cl)cc24)SC[C@H]3CC2CCN(C)CC2)[C@@H](C)C1` [Example 87, (3R)-7-((S)-4-acryloyl-2-methylpiperazin-1-yl)-9-chloro-10-(2,4-difluorophenyl)-3-((1-methylpiperidin-4-yl)methyl)-2,3-dihydro-5H-[1,4]thiazino[2,3,4-ij]quinazolin-5-one] the value was 82.4%; for `C=CC(=O)N1CCN(c2nc(=O)n3c4c(c(-c5ccc(F)cc5F)c(Cl)cc24)SCC3)C[C@@H]1CC#N` [Example 88, 2-((2S)-1-acryloyl-4-(9-chloro-10-(2,4-difluorophenyl)-5-oxo-2,3-dihydro-5H-[1,4]thiazino[2,3,4-ij]quinazolin-7-yl)piperazin-2-yl)acetonitrile], 90.2%.
Same read-out and setting: in the case of `C=CC(=O)N1CCN(c2nc(=O)n3c4c(c(-c5ccc(Cl)c(F)c5)c(Cl)cc24)SCC3)[C@@H](C)C1` [Example 89, (S)-7-(4-acryloyl-2-methylpiperazin-1-yl)-9-chloro-10-(4-chloro-3-fluorophenyl)-2,3-dihydro-5H-[1,4]thiazino[2,3,4-ij]quinazolin-5-one] it was 94.5%; in that of `C=CC(=O)N1CCN(c2nc(=O)n3c4c(c(-c5cc(F)c(F)c(F)c5)c(Cl)cc24)SCC3)[C@@H](C)C1` [Example 90, (S)-7-(4-acryloyl-2-methylpiperazin-1-yl)-9-chloro-10-(3,4,5-trifluorophenyl)-2,3-dihydro-5H-[1,4]thiazino[2,3,4-ij]quinazolin-5-one], 78.8%; in that of `C=CC(=O)N1CCN(c2nc(=O)n3c4c(c(-c5c(F)cc(F)cc5F)c(Cl)cc24)SC[C@H]3CC2CCN(C)CC2)[C@@H](C)C1` [Example 91, (R)-7-((S)-4-acryloyl-2-methylpiperazin-1-yl)-9-chloro-3-((1-methylpiperidin-4-yl)methyl)-10-(2,4,6-trifluorophenyl)-2,3-dihydro-5H-[1,4]thiazino[2,3,4-ij]quinazolin-5-one], 94.8%.
As for `C=CC(=O)N1CCN(c2nc(=O)n3c4c(c(-c5c(F)cc(F)cc5F)c(Cl)cc24)SC[C@@H]3CC2CCN(C)CC2)[C@@H](C)C1` [Example 92, (S)-7-((S)-4-acryloyl-2-methylpiperazin-1-yl)-9-chloro-3-((1-methylpiperidin-4-yl)methyl)-10-(2,4,6-trifluorophenyl)-2,3-dihydro-5H-[1,4]thiazino[2,3,4-ij]quinazolin-5-one], the “% CAF @ 10 uM, 1h” value came out at 96.7%.
Same read-out and setting: in the case of `C[C@H]1CN(C(=O)/C=C/C(F)(F)F)CCN1c1nc(=O)n2c3c(c(-c4ccc(F)c(Cl)c4)c(Cl)cc13)SCC2` [Example 93, (S,E)-9-chloro-10-(3-chloro-4-fluorophenyl)-7-(2-methyl-4-(4,4,4-trifluorobut-2-enoyl)piperazin-1-yl)-2,3-dihydro-5H-[1,4]thiazino[2,3,4-ij]quinazolin-5-one] it was 95%; in that of `C=CC(=O)N1CCN(c2nc(=O)n3c4c(c(-c5ccc(F)cc5F)c(Cl)cc24)SC[C@@H]3CCCN2C[C@@H]3C[C@H]2CO3)[C@@H](C)C1` [Example 94, (3S)-3-(3-((1S,4S)-2-oxa-5-azabicyclo[2.2.1]heptan-5-yl)propyl)-7-((S)-4-acryloyl-2-methylpiperazin-1-yl)-9-chloro-10-(2,4-difluorophenyl)-2,3-dihydro-5H-[1,4]thiazino[2,3,4-ij]quinazolin-5-one], 94.7%.
Still for that read-out and setting: in the case of `C=CC(=O)N1C2CN(c3nc(=O)n4c5c(c(-c6ccc(F)cc6F)c(Cl)cc35)SCC4)CC1CN(S(C)(=O)=O)C2` [Example 95, 7-(9-acryloyl-7-(methylsulfonyl)-3,7,9-triazabicyclo[3.3.1]nonan-3-yl)-9-chloro-10-(2,4-difluorophenyl)-2,3-dihydro-5H-[1,4]thiazino[2,3,4-ij]quinazolin-5-one] it was 70.5%; in that of `C=CC(=O)N1CCN(c2nc(=O)n3c4c(c(-c5cccc6c5C(=O)NC6)c(Cl)cc24)SCC3)[C@@H](C)C1` [Example 96, 7-((S)-4-acryloyl-2-methylpiperazin-1-yl)-9-chloro-10-(3-oxoisoindolin-4-yl)-2,3-dihydro-5H-[1,4]thiazino[2,3,4-ij]quinazolin-5-one], 54%; in that of `C=CC(=O)N1CCN(c2nc(=O)n3c4c(c(-c5ccc(F)cc5F)c(Cl)cc24)SC[C@H]3CCCN2C[C@@H]3C[C@H]2CO3)[C@@H](C)C1` [Example 97, (3R)-3-(3-((1S,4S)-2-oxa-5-azabicyclo[2.2.1]heptan-5-yl)propyl)-7-((S)-4-acryloyl-2-methylpiperazin-1-yl)-9-chloro-10-(2,4-difluorophenyl)-2,3-dihydro-5H-[1,4]thiazino[2,3,4-ij]quinazolin-5-one], 96.5%.
Same read-out and setting: for `C=CC(=O)N1CCN(c2nc(=O)n3c4c(c(-c5ccc(F)c(Cl)c5)c(Cl)cc24)SCC3)[C@@H](C)C1` [Example 98, (S)-7-(4-acryloyl-2-methylpiperazin-1-yl)-9-chloro-10-(3-chloro-4-fluorophenyl)-2,3-dihydro-5H-[1,4]thiazino[2,3,4-ij]quinazolin-5-one] the value was 86.4%; for `C=CC(=O)N1CCN(c2nc(=O)n3c4c(c(-c5ccc(F)cc5F)c(Cl)cc24)SC[C@H]3C)[C@@H](C)C1` [Example 99, (3R)-7-((S)-4-acryloyl-2-methylpiperazin-1-yl)-9-chloro-10-(2,4-difluorophenyl)-3-methyl-2H-[1,4]thiazino[2,3,4-ij]quinazolin-5(3H)-one], 87.2%.
As for `C=CC(=O)N1CCN(c2nc(=O)n3c4c(c(-c5ccc(F)cc5F)c(C(F)(F)F)cc24)SCC3)C2CS(=O)(=O)CC21` (stereo not shown) [Example 100, 7-(4-acryloyl-6,6-dioxidohexahydrothieno[3,4-b]pyrazin-1(2H)-yl)-10-(2,4-difluorophenyl)-9-(trifluoromethyl)-2,3-dihydro-5H-[1,4]thiazino[2,3,4-ij]quinazolin-5-one], the “% CAF @ 10 uM, 1h” value worked out at 94%.
Still for that read-out and setting: in the case of `C=CC(=O)N1C2CC(=O)CC1CN(c1nc(=O)n3c4c(c(-c5ccc(F)cc5F)c(C(F)(F)F)cc14)SCC3)C2` [Example 101, 7-(9-acryloyl-7-oxo-3,9-diazabicyclo[3.3.1]nonan-3-yl)-10-(2,4-difluorophenyl)-9-(trifluoromethyl)-2,3-dihydro-5H-[1,4]thiazino[2,3,4-ij]quinazolin-5-one] it was 96.5%; in that of `C=CC(=O)N1CCN(c2nc(=O)n3c4c(c(-c5ccc(F)cc5F)c(Cl)cc24)SCCC3)[C@@H](C)C1` [Example 102, 8-((S)-4-acryloyl-2-methylpiperazin-1-yl)-10-chloro-11-(2,4-difluorophenyl)-3,4-dihydro-2H,6H-[1,4]thiazepino[2,3,4-ij]quinazolin-6-one], 95.4%; in that of `C=CC(=O)N1CCN(c2nc(=O)n3c4c(c(-c5ccc(F)cc5F)c(OC)cc24)SCC3)[C@@H](C)C1` [Example 103, 7-((S)-4-acryloyl-2-methylpiperazin-1-yl)-10-(2,4-difluorophenyl)-9-methoxy-2,3-dihydro-5H-[1,4]thiazino[2,3,4-ij]quinazolin-5-one], 92.5%.
On the same count and under the same terms, in the case of `C=CC(=O)N1CCN(c2nc(=O)n3c4c(c(-c5ccc(F)cc5F)c(Cl)cc24)SCC3)[C@@H](CC#N)C1` [Example 104, 2-((2S)-4-acryloyl-1-(9-chloro-10-(2,4-difluorophenyl)-5-oxo-2,3-dihydro-5H-[1,4]thiazino[2,3,4-ij]quinazolin-7-yl)piperazin-2-yl)acetonitrile] it was 94.4%; in that of `C=CC(=O)N1CCN(c2nc(=O)n3c4c(c(-c5cccc6c5CC(=O)N6)c(Cl)cc24)SCC3)[C@@H](C)C1` [Example 105, 7-((S)-4-acryloyl-2-methylpiperazin-1-yl)-9-chloro-10-(2-oxoindolin-4-yl)-2,3-dihydro-5H-[1,4]thiazino[2,3,4-ij]quinazolin-5-one], 18.9%.
`C=CC(=O)N1CCN(c2nc(=O)n3c4c(c(-c5c(F)cc(Cl)cc5F)c(Cl)cc24)SCC3)[C@@H](C)C1` [Example 106, (S)-7-(4-acryloyl-2-methylpiperazin-1-yl)-9-chloro-10-(4-chloro-2,6-difluorophenyl)-2,3-dihydro-5H-[1,4]thiazino[2,3,4-ij]quinazolin-5-one]: the “% CAF @ 10 uM, 1h” value turned out to be 45.2%.
The same measure, in the same setting: in the case of `C=CC(=O)N1CCN(c2nc(=O)n3c4c(c(-c5c(F)cc(F)cc5F)c(Cl)cc24)SC[C@@H]3CCCN2C[C@@H]3C[C@H]2CO3)[C@@H](C)C1` [Example 109, (S)-3-(3-((1S,4S)-2-oxa-5-azabicyclo[2.2.1]heptan-5-yl)propyl)-7-((S)-4-acryloyl-2-methylpiperazin-1-yl)-9-chloro-10-(2,4,6-trifluorophenyl)-2,3-dihydro-5H-[1,4]thiazino[2,3,4-ij]quinazolin-5-one] it was 96.9%.
On the same count and under the same terms, for `C=CC(=O)N1CCN(c2nc(=O)n3c4c(c(-c5c(F)cc(F)cc5F)c(Cl)cc24)SC[C@H]3CCCN2C[C@@H]3C[C@H]2CO3)[C@@H](C)C1` [Example 110, (R)-3-(3-((1S,4S)-2-oxa-5-azabicyclo[2.2.1]heptan-5-yl)propyl)-7-((S)-4-acryloyl-2-methylpiperazin-1-yl)-9-chloro-10-(2,4,6-trifluorophenyl)-2,3-dihydro-5H-[1,4]thiazino[2,3,4-ij]quinazolin-5-one] the value was 96.6%.

Staying with this assay, now noted: 10 μM, 1 h; Table 4.
With `C=CC(=O)N1CCN(c2nc(=O)n3c4c(c(-c5ccc(F)cc5F)c(Cl)cc24)SC[C@H]3C)[C@@H](C)C1` [Example 99, (3R)-7-((S)-4-acryloyl-2-methylpiperazin-1-yl)-9-chloro-10-(2,4-difluorophenyl)-3-methyl-2H-[1,4]thiazino[2,3,4-ij]quinazolin-5(3H)-one], the “% CAF @ 10 μM, 1 h” value amounted to 87.2%.
